In US7070803B2 (Nycomed Austria GmbH, priority 2000, dated 2006):

How the values were obtained:
[1] = doses used in clinical practise (10 mg t.i.d.); cited from earlier work
[2] = Absorption of midodrine from the colon (plasma levels); details: human, in vivo, tmax of desglymidodrine after colon absorption, midodrine absorbed in the colon
[3] = Plasma pharmacokinetics after oral intake of midodrine (plain tablet / solution); details: human, in vivo
Excerpt: Considering the chronic nature of the diseases in question, which requires a long-term treatment as well as the correlation between plasma levels and the incidence and severity of adverse events, the development of a controlled release form is highly desired.

Compound	effect on standing blood pressure [1]	Tmax [2] [h]	Tmax [3] [h]
COc1ccc(OC)c(C(O)CNC(=O)CN)c1 (stereo not drawn) [midodrine, 2-amino-N-[2-(2,5-dimethoxyphenyl)-2-hydroxyethyl]-acetamide]	significantly increase standing blood pressure	–	–
COc1ccc(OC)c(C(O)CN)c1 (stereo not drawn) [desglymidodrine, alpha-(aminomethyl)-2,5-dimethoxy-benzenemethanol]	–	~3	1
